What was measured:
Assay in all cases: cell viability (% survival relative to DMSO control); higher = less cytotoxic
Conditions in all cases: 72 h
[1] = tested on: myeloid leukemia patient primary cells Pat.11
In short: (§1)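 Thawed mononuclear cells from AML or CML patients were purified on Ficoll and cultured for 72 h in RPMI 1640 with 10% FBS, at 10,000 cells/well, on 384-well plates carrying 70 pre-printed compounds at 1–10,000 nM in five tenfold steps, in duplicate. Viability came from CellTiter-Glo, normalised against DMSO and against 10 μM proteasome inhibitor. Any area under the curve given was derived from log-logistic curve fits in the drc and PharmacoGx R packages, and these fits had four parameters.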

[2] = tested on: myeloid leukemia patient primary cells Pat.14
In short: as §1

[3] = tested on: myeloid leukemia patient primary cells Pat.1
In short: as §1

[4] = tested on: myeloid leukemia patient primary cells Pat.4
In short: as §1

[5] = tested on: myeloid leukemia patient primary cells Pat.5
In short: as §1

[6] = tested on: myeloid leukemia patient primary cells Pat.6
In short: as §1

[7] = tested on: myeloid leukemia patient primary cells Pat.7
In short: as §1

[8] = tested on: myeloid leukemia patient primary cells Pat.8
In short: as §1

[9] = tested on: myeloid leukemia patient primary cells Pat.9
In short: as §1

## COc1cc(/C=C/C(=O)N2CCC=CC2=O)cc(OC)c1OC [Piperlongumine]
[1]; 1 nM
  cell viability: 94.1%
[1]; 10 nM
  cell viability: 98.5%
[1]; 100 nM
  cell viability: > 100%
[1]; 1000 nM
  cell viability: > 100%
[1]; 10000 nM
  cell viability: 5.04%
[2]; 1 nM
  cell viability: 60.5%
[2]; 10 nM
  cell viability: 98.5%
[2]; 100 nM
  cell viability: 68.7%
[2]; 1000 nM
  cell viability: 44.8%
[2]; 10000 nM
  cell viability: 6.11%
[3]; 1 nM
  cell viability: 93.4%
[3]; 10 nM
  cell viability: 84.5%
[3]; 100 nM
  cell viability: 70.3%
[3]; 1000 nM
  cell viability: 75.6%
[3]; 10000 nM
  cell viability: 3.43%
[4]; 1 nM
  cell viability: 82.6%
[4]; 10 nM
  cell viability: 88.8%
[4]; 100 nM
  cell viability: 68.2%
[4]; 1000 nM
  cell viability: 53.9%
[4]; 10000 nM
  cell viability: < 0%
[5]; 1 nM
  cell viability: 6.78%
[5]; 10 nM
  cell viability: 82.5%
[5]; 100 nM
  cell viability: 13.4%
[5]; 1000 nM
  cell viability: 11.1%
[5]; 10000 nM
  cell viability: 10.1%
[6]; 1 nM
  cell viability: 83.2%
[6]; 10 nM
  cell viability: 96.6%
[6]; 100 nM
  cell viability: 86.2%
[6]; 1000 nM
  cell viability: > 100%
[6]; 10000 nM
  cell viability: 2.54%
[7]; 1 nM
  cell viability: 52%
[7]; 10 nM
  cell viability: > 100%
[7]; 100 nM
  cell viability: 69.9%
[7]; 1000 nM
  cell viability: 78.6%
[7]; 10000 nM
  cell viability: 57%
[8]; 1 nM
  cell viability: 79.2%
[8]; 10 nM
  cell viability: 89.3%
[8]; 100 nM
  cell viability: 79.2%
[8]; 1000 nM
  cell viability: 77.1%
[8]; 10000 nM
  cell viability: 0.503%
[9]; 1 nM
  cell viability: 9.44%
[9]; 10 nM
  cell viability: 76.7%
[9]; 100 nM
  cell viability: 31.8%
[9]; 1000 nM
  cell viability: 39%
[9]; 10000 nM
  cell viability: 7.88%

## C=C(C)[C@H]1Cc2c(ccc3c2O[C@@H]2COc4cc(OC)c(OC)cc4[C@@H]2C3=O)O1 [Rotenone]
[1]; 1 nM
  cell viability: 88.5%
[1]; 10 nM
  cell viability: 93.3%
[1]; 100 nM
  cell viability: 94.2%
[1]; 1000 nM
  cell viability: 85.5%
[1]; 10000 nM
  cell viability: 73.9%
[2]; 1 nM
  cell viability: 30.2%
[2]; 10 nM
  cell viability: 71%
[2]; 100 nM
  cell viability: 50%
[2]; 1000 nM
  cell viability: 30.8%
[2]; 10000 nM
  cell viability: 10.7%
[3]; 1 nM
  cell viability: 75.9%
[3]; 10 nM
  cell viability: 81.3%
[3]; 100 nM
  cell viability: 72.8%
[3]; 1000 nM
  cell viability: 68.4%
[3]; 10000 nM
  cell viability: 34.8%
[4]; 1 nM
  cell viability: 79.9%
[4]; 10 nM
  cell viability: 89.3%
[4]; 100 nM
  cell viability: 88.5%
[4]; 1000 nM
  cell viability: 62.3%
[4]; 10000 nM
  cell viability: 11.7%
[5]; 1 nM
  cell viability: 5.46%
[5]; 10 nM
  cell viability: 0.265%
[5]; 100 nM
  cell viability: 0.912%
[5]; 1000 nM
  cell viability: 0.265%
[5]; 10000 nM
  cell viability: 1.18%
[6]; 1 nM
  cell viability: 44.2%
[6]; 10 nM
  cell viability: 75.4%
[6]; 100 nM
  cell viability: 47.2%
[6]; 1000 nM
  cell viability: 37.3%
[6]; 10000 nM
  cell viability: 23.7%
[7]; 1 nM
  cell viability: 5.63%
[7]; 10 nM
  cell viability: 79.4%
[7]; 100 nM
  cell viability: 54.6%
[7]; 1000 nM
  cell viability: 36.3%
[7]; 10000 nM
  cell viability: 1.21%
[8]; 1 nM
  cell viability: 70.8%
[8]; 10 nM
  cell viability: 79.3%
[8]; 100 nM
  cell viability: 55.6%
[8]; 1000 nM
  cell viability: 36.8%
[8]; 10000 nM
  cell viability: 3.96%
[9]; 1 nM
  cell viability: 1.24%
[9]; 10 nM
  cell viability: 50.1%
[9]; 100 nM
  cell viability: 10.8%
[9]; 1000 nM
  cell viability: 1.6%
[9]; 10000 nM
  cell viability: < 0%

## Oc1ccc(Nc2nc(-c3ccc(Cl)cc3)cs2)cc1 [SKI II]
[1]; 1 nM
  cell viability: 89.5%
[1]; 10 nM
  cell viability: 97.2%
[1]; 100 nM
  cell viability: 98.4%
[1]; 1000 nM
  cell viability: 92%
[1]; 10000 nM
  cell viability: 79.3%
[2]; 1 nM
  cell viability: 58.3%
[2]; 10 nM
  cell viability: 97.8%
[2]; 100 nM
  cell viability: 69.4%
[2]; 1000 nM
  cell viability: 29.1%
[2]; 10000 nM
  cell viability: 6.09%
[3]; 1 nM
  cell viability: 64.1%
[3]; 10 nM
  cell viability: > 100%
[3]; 100 nM
  cell viability: > 100%
[3]; 1000 nM
  cell viability: 88.9%
[3]; 10000 nM
  cell viability: 32.6%
[4]; 1 nM
  cell viability: 65.6%
[4]; 10 nM
  cell viability: 94.5%
[4]; 100 nM
  cell viability: 54.5%
[4]; 1000 nM
  cell viability: 89.1%
[4]; 10000 nM
  cell viability: 25.3%
[5]; 1 nM
  cell viability: 34.3%
[5]; 10 nM
  cell viability: 41.7%
[5]; 100 nM
  cell viability: 45.5%
[5]; 1000 nM
  cell viability: 25%
[5]; 10000 nM
  cell viability: 17%
[6]; 1 nM
  cell viability: 75.2%
[6]; 10 nM
  cell viability: 98.7%
[6]; 100 nM
  cell viability: 95.4%
[6]; 1000 nM
  cell viability: 93.1%
[6]; 10000 nM
  cell viability: 16.2%
[7]; 1 nM
  cell viability: 79.7%
[7]; 10 nM
  cell viability: > 100%
[7]; 100 nM
  cell viability: 62.7%
[7]; 1000 nM
  cell viability: 11.5%
[7]; 10000 nM
  cell viability: < 0%
[8]; 1 nM
  cell viability: 82.4%
[8]; 10 nM
  cell viability: 80.7%
[8]; 100 nM
  cell viability: 84.5%
[8]; 1000 nM
  cell viability: 80%
[8]; 10000 nM
  cell viability: 42.6%
[9]; 1 nM
  cell viability: 20.1%
[9]; 10 nM
  cell viability: 79.9%
[9]; 100 nM
  cell viability: 67.9%
[9]; 1000 nM
  cell viability: 24.7%
[9]; 10000 nM
  cell viability: 4.42%

## CC[C@@]1(O)C(=O)OCc2c1cc1n(c2=O)Cc2cc3c(CN(C)C)c(O)ccc3nc2-1 [Topotecan]
[1]; 1 nM
  cell viability: 99.8%
[1]; 10 nM
  cell viability: 97.2%
[1]; 100 nM
  cell viability: 92.4%
[1]; 1000 nM
  cell viability: 76.2%
[1]; 10000 nM
  cell viability: 53.3%
[2]; 1 nM
  cell viability: 96%
[2]; 10 nM
  cell viability: 97%
[2]; 100 nM
  cell viability: 72.4%
[2]; 1000 nM
  cell viability: 58.2%
[2]; 10000 nM
  cell viability: 6.19%
[3]; 1 nM
  cell viability: 83.6%
[3]; 10 nM
  cell viability: 80.9%
[3]; 100 nM
  cell viability: 98.6%
[3]; 1000 nM
  cell viability: 96%
[3]; 10000 nM
  cell viability: 28.6%
[4]; 1 nM
  cell viability: 75.3%
[4]; 10 nM
  cell viability: 84.2%
[4]; 100 nM
  cell viability: > 100%
[4]; 1000 nM
  cell viability: 82.5%
[4]; 10000 nM
  cell viability: 4.14%
[5]; 1 nM
  cell viability: 91.7%
[5]; 10 nM
  cell viability: 66.1%
[5]; 100 nM
  cell viability: 53.1%
[5]; 1000 nM
  cell viability: 19.8%
[5]; 10000 nM
  cell viability: 0.265%
[6]; 1 nM
  cell viability: > 100%
[6]; 10 nM
  cell viability: 97.4%
[6]; 100 nM
  cell viability: 94.6%
[6]; 1000 nM
  cell viability: 75.1%
[6]; 10000 nM
  cell viability: 32.5%
[7]; 1 nM
  cell viability: 80.1%
[7]; 10 nM
  cell viability: 94.3%
[7]; 100 nM
  cell viability: 81.4%
[7]; 1000 nM
  cell viability: 34.7%
[7]; 10000 nM
  cell viability: < 0%
[8]; 1 nM
  cell viability: 76.3%
[8]; 10 nM
  cell viability: 69.7%
[8]; 100 nM
  cell viability: 93.5%
[8]; 1000 nM
  cell viability: 87.2%
[8]; 10000 nM
  cell viability: 27.3%
[9]; 1 nM
  cell viability: 78.4%
[9]; 10 nM
  cell viability: 58.3%
[9]; 100 nM
  cell viability: 31.8%
[9]; 1000 nM
  cell viability: 58.8%
[9]; 10000 nM
  cell viability: 1.24%

## CCC(=O)N1CCN(c2ccc(-n3c(=O)ccc4cnc5ccc(-c6cnc7ccccc7c6)cc5c43)cc2C(F)(F)F)CC1 [Torin1]
[1]; 1 nM
  cell viability: 92.9%
[1]; 10 nM
  cell viability: 90.9%
[1]; 100 nM
  cell viability: 85.8%
[1]; 1000 nM
  cell viability: 56.7%
[1]; 10000 nM
  cell viability: 39.4%
[2]; 1 nM
  cell viability: 77.2%
[2]; 10 nM
  cell viability: 82.1%
[2]; 100 nM
  cell viability: 74.3%
[2]; 1000 nM
  cell viability: 38.1%
[2]; 10000 nM
  cell viability: 54.1%
[3]; 1 nM
  cell viability: 85.1%
[3]; 10 nM
  cell viability: 60.4%
[3]; 100 nM
  cell viability: 44.2%
[3]; 1000 nM
  cell viability: 30.2%
[3]; 10000 nM
  cell viability: 21.5%
[4]; 1 nM
  cell viability: 91.6%
[4]; 10 nM
  cell viability: 76%
[4]; 100 nM
  cell viability: 59.8%
[4]; 1000 nM
  cell viability: 40.2%
[4]; 10000 nM
  cell viability: 12.8%
[5]; 1 nM
  cell viability: 54.5%
[5]; 10 nM
  cell viability: 13.5%
[5]; 100 nM
  cell viability: 53.9%
[5]; 1000 nM
  cell viability: 1.18%
[5]; 10000 nM
  cell viability: 0.265%
[6]; 1 nM
  cell viability: 97.8%
[6]; 10 nM
  cell viability: 89.3%
[6]; 100 nM
  cell viability: 94.1%
[6]; 1000 nM
  cell viability: 62.6%
[6]; 10000 nM
  cell viability: 62.9%
[7]; 1 nM
  cell viability: 75.7%
[7]; 10 nM
  cell viability: 74.2%
[7]; 100 nM
  cell viability: 88.2%
[7]; 1000 nM
  cell viability: 44.8%
[7]; 10000 nM
  cell viability: 37.6%
[8]; 1 nM
  cell viability: 91.1%
[8]; 10 nM
  cell viability: 66.9%
[8]; 100 nM
  cell viability: 73.1%
[8]; 1000 nM
  cell viability: 61.7%
[8]; 10000 nM
  cell viability: 53.7%
[9]; 1 nM
  cell viability: 80.9%
[9]; 10 nM
  cell viability: 57.7%
[9]; 100 nM
  cell viability: 62%
[9]; 1000 nM
  cell viability: 27%
[9]; 10000 nM
  cell viability: 12.3%
